As a reminder, the inhibition is the percentage by which the read-out fell short of the control.

In data set [1] the target is AChE (Electrophorus electricus, UniProt O42275). In words: AChE inhibition, in vitro modified Ellman's spectrophotometric method. It is filed as biochemical. As to conditions: read-out: AChE % Inhibition. The text has this:
The assay was completed in two steps.
The reagents and materials used in the enzyme inhibition assay were supplied commercially by Sigma-Aldrich (St. Louis, MO, USA) and Fluka (Steinheim, Germany). The cholinesterase enzyme inhibition procedure was applied as reported in our previous research papers.
(In general: Ellman's reagent forms a yellow product with free thiols.)

Data set [2] concerns BChE. The data set is classed as biochemical. The protocol: The inhibitory activities of all of the obtained chalcone derivatives (3a–3j) against cholinesterase enzymes were evaluated using the previously described in vitro modified Ellman’s spectrophotometric method.
The assay was completed in two steps. […].
[…]. The reagents and materials used in the enzyme inhibition assay were supplied commercially by Sigma-Aldrich (St. Louis, MO, USA) and Fluka (Steinheim, Germany). The cholinesterase enzyme inhibition procedure was applied as reported in our previous research papers.

Data set [3] is described as follows: DPPH free radical scavenging antioxidant activity. The text has this: This activity method is a method based on measuring the scavenging effects of the DPPH• (1,1-Diphenyl-2-picrylhydrazil) radical, which is a stable organic nitrogen radical of antioxidants. One of the few stable organic nitrogen radicals, the DPPH• radical is dark violet in color. This method, which is based on the scavenging of the DPPH radical via antioxidants, is a redox reaction. When this radical interacts with hydrogen donors, it is reduced to hydrazine. The dark purple color of the methanolic DPPH• solution turns yellow with the addition of antioxidants, and the change in absorbance is measured spectrophotometrically. More illumination is determined by a greater reduction in the absorbance of the reaction mixture and indicates higher radical scavenging capacity.
For the DPPH free radical scavenging activity test, test compounds were prepared at 10 µM, 1 µM, 0.1 µM, and 0.01 µM concentrations, as shown in Figure 3. By using the absorbance changes determined because of the spectroscopic measurement, the % DPPH free radical scavenging activities of the synthesized compounds and reference materials (ascorbic acid and citric acid) were determined. The % antioxidant activities of all tested compounds were calculated based on the control.
This is a method based on measuring the scavenging effects of the DPPH (1,1-Diphenyl-2- picrylhydrazyl) radical, a stable organic nitrogen-centered free radical. To prepare the DPHH solution, 9.86 mg of DPPH was measured and topped up to 25 mL with methanol. A total of 100 µL of DPPH solution and 100 µL of the test solutions were placed in the test wells. Only 200 µL of methanol was used for blank reading; 100 µL of methanol and 100 µL of DPPH solution were used for control. After incubation, spectrophotometric reading was performed at 517 nm.

Data set [4] in a line: In vitro BBB permeability assay (PAMPA). As to conditions: for Type of BBB Permeation: PAMPA, PBS pH 7.4, donor 100 μM; for BBB permeability (in words): in vitro PAMPA. The data set is classed as in vitro ADME. The protocol: As it is known, the ability of drugs to be used in diseases related to the central nervous system to pass the blood–brain barrier is an indispensable feature. These properties of the synthesized compounds were estimated using physicochemical parameters. […].
To observe the BBB permeability of the active compounds 3i and 3j, the parallel artificial membrane permeability assay (PAMPA) was performed as previously described. Briefly, the solutions of each compound were prepared in dimethyl sulfoxide (DMSO) at 10 mM and then diluted with PBS (Phosphate-Buffered Saline; pH = 7.4) to obtain the donor drug solution with the nominal final concentration of 100 μM (297 μL of buffer + 3 μL of DMSO drug solution). An amount of 100 μM is suitable for direct HPLC-DAD measurements. This solution was shaken for 1 h at room temperature in a 96-well polypropylene plate (Agilent, Waldbronn, Germany) and then filtered to avoid solid particles. The data were measured in 3 replicates on each plate. After the preparation of the solutions, the assay procedure was performed according to the kit method.
In general terms: PAMPA measures passive passage across an artificial lipid membrane.

Data set [5] in a line: Cytotoxicity MTT assay in NIH/3T3 cell line. The data set is classed as cell-based. The note with it: mouse, NIH/3T3 mouse embryonic fibroblast cells, read-out: IC50 against NIH/3T3 cells (cytotoxicity). The protocol:
The NIH/3T3 mouse embryonic fibroblast cell line (ATCC® CRL-1658™, London, UK) was used for cytotoxicity assays. The incubation period of NIH/3T3 cells was based on the supplier’s recommendation. NIH/3T3 cells were seeded at 1 × 10^4 cells into each well of the 96-well plates. The MTT assay was carried out in accordance with the standards previously described.
(Tetrazolium assays rely on reduction of a dye to a coloured formazan, in cell work by metabolically active cells.)

Where two headings read alike, the source gives them in different places.

Sequence of AChE (O42275 24-633): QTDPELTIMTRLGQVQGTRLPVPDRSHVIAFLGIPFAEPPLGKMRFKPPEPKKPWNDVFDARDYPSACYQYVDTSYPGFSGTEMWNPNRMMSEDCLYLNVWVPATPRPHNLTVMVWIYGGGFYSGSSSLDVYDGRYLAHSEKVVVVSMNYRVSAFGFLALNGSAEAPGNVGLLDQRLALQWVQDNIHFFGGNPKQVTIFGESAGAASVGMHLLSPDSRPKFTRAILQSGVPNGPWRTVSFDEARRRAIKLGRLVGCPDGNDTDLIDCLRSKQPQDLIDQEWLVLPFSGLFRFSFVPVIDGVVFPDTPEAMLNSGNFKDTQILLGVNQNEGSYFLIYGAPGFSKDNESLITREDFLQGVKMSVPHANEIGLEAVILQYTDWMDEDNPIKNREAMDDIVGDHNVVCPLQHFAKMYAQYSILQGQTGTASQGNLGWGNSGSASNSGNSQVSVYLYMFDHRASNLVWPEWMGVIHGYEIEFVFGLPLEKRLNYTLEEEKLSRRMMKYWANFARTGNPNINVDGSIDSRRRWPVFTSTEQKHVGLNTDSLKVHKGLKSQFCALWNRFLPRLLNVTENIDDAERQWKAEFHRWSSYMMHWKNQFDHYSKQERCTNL

As for `CCNc1nnc(SCC(=O)c2ccc3c(c2)NC(=O)CS3)s1` [Compound 3a, 6-(2-((5-(Ethylamino)-1,3,4-thiadiazol-2-yl)sulfanyl)acetyl)-2H-benzo[b][1,4]thiazin-3(4H)-one], in data set [1], the inhibition at 100 µM is 48.8 ± 0.8% and the inhibition at 1000 µM worked out at 78.2 ± 1.2%. The “BChE % Inhibition” value in data set [2] (10^−3 M) is on record as 31.8 ± 0.8%. Also, the “BChE % Inhibition” value in data set [2] (10^−4 M) was found to be 25.1 ± 0.8%.

`CCCNc1nnc(SCC(=O)c2ccc3c(c2)NC(=O)CS3)s1` [Compound 3b, 6-(2-((5-(Propylamino)-1,3,4-thiadiazol-2-yl)sulfanyl)acetyl)-2H-benzo[b][1,4]thiazin-3(4H)-one]: in data set [1], the inhibition at 100 µM stood at 45.6 ± 0.9% and the inhibition at 1000 µM came to 75.4 ± 1.4%. For the same molecule, in data set [2] (10^−3 M), the “BChE % Inhibition” value turned out to be 34.9 ± 0.8%. Also, the “BChE % Inhibition” value in data set [2] (10^−4 M) amounted to 26.9 ± 0.6%.

As to `CC(C)Nc1nnc(SCC(=O)c2ccc3c(c2)NC(=O)CS3)s1` [Compound 3c, 6-(2-((5-(Isopropylamino)-1,3,4-thiadiazol-2-yl)sulfanyl)acetyl)-2H-benzo[b][1,4]thiazin-3(4H)-one], the inhibition at 100 µM in data set [1] was determined as 40.1 ± 0.9%. In addition, the inhibition at 1000 µM in data set [1] stood at 70.6 ± 1%. In addition, the “BChE % Inhibition” value is given as 29.1 ± 0.8% in data set [2] (10^−3 M) and 20.4 ± 0.7% in data set [2] (10^−4 M).

As to `CCCCNc1nnc(SCC(=O)c2ccc3c(c2)NC(=O)CS3)s1` [Compound 3d, 6-(2-((5-(Butylamino)-1,3,4-thiadiazol-2-yl)sulfanyl)acetyl)-2H-benzo[b][1,4]thiazin-3(4H)-one], in data set [1], the inhibition at 100 µM turned out to be 47.3 ± 0.9% and the inhibition at 1000 µM turned out to be 72.7 ± 1.5%. For the same molecule, the “BChE % Inhibition” value in data set [2] (10^−3 M) worked out at 36.1 ± 0.9%. Further, the “BChE % Inhibition” value in data set [2] (10^−4 M) is 21.4 ± 0.9%.

Regarding `CC(C)CNc1nnc(SCC(=O)c2ccc3c(c2)NC(=O)CS3)s1` [Compound 3e, 6-(2-((5-(Isobutylamino)-1,3,4-thiadiazol-2-yl)sulfanyl)acetyl)-2H-benzo[b][1,4]thiazin-3(4H)-one], in data set [1], the inhibition at 100 µM was 46.2 ± 0.8%. In addition, the inhibition at 1000 µM in data set [1] turned out to be 69.9 ± 1.2%. The figures for the “BChE % Inhibition” value in data set [2] (10^−3 M) and in data set [2] (10^−4 M) were 37.3 ± 0.8% and 24.6 ± 0.9%, respectively.

Regarding `O=C1CSc2ccc(C(=O)CSc3nnc(NC4CCCCC4)s3)cc2N1` [Compound 3f, 6-(2-((5-(Cyclohexylamino)-1,3,4-thiadiazol-2-yl)sulfanyl)acetyl)-2H-benzo[b][1,4]thiazin-3(4H)-one], the inhibition at 100 µM in data set [1] was determined as 45 ± 1%. The inhibition at 1000 µM in data set [1] is 65.4 ± 1.3%. Besides, the “BChE % Inhibition” value in data set [2] (10^−3 M) amounted to 30.5 ± 0.8%; in data set [2] (10^−4 M), 26.2 ± 0.8%.

In the case of `O=C1CSc2ccc(C(=O)CSc3nnc(Nc4ccccc4)s3)cc2N1` [Compound 3g, 6-(2-((5-(Phenylamino)-1,3,4-thiadiazol-2-yl)sulfanyl)acetyl)-2H-benzo[b][1,4]thiazin-3(4H)-one], in data set [1], the inhibition at 100 µM amounted to 44.5 ± 0.8% and the inhibition at 1000 µM is 80.1 ± 1.2%. Further, the “BChE % Inhibition” value in data set [2] (10^−3 M) came out at 39.6 ± 0.9%. The “BChE % Inhibition” value in data set [2] (10^−4 M) came out at 24.8 ± 0.8%.

In the case of `Cc1ccc(Nc2nnc(SCC(=O)c3ccc4c(c3)NC(=O)CS4)s2)cc1` [Compound 3h, 6-(2-((5-(p-Tolylamino)-1,3,4-thiadiazol-2-yl)sulfanyl)acetyl)-2H-benzo[b][1,4]thiazin-3(4H)-one], in data set [1], the inhibition at 100 µM is 42.7 ± 0.8% and the inhibition at 1000 µM was 82.2 ± 1.8%. Further, the “BChE % Inhibition” value in data set [2] (10^−3 M) is 35.6 ± 0.7%. The “BChE % Inhibition” value in data set [2] (10^−4 M) is reported as 23.5 ± 0.7%.

`COc1ccc(Nc2nnc(SCC(=O)c3ccc4c(c3)NC(=O)CS4)s2)cc1` [Compound 3i, 6-(2-((5-((4-Methoxyphenyl)amino)-1,3,4-thiadiazol-2-yl)sulfanyl)acetyl)-2H-benzo[b][1,4]thiazin-3(4H)-one]: the inhibition at 100 µM in data set [1] came to 90.5 ± 1.1%. In addition, the inhibition at 1000 µM in data set [1] came out at 93.2 ± 1.4%. Besides, the “BChE % Inhibition” value in data set [2] (10^−3 M) is given as 40.2 ± 0.9%; in data set [2] (10^−4 M), 28.0 ± 0.8%. The “% DPPH free radical scavenging (inhibition)” value was 65.00% ± 1.10 in data set [3] (0.01 µM), 75.00% ± 1.80 in data set [3] (0.1 µM), 82.00% ± 1.20 in data set [3] (1 µM) and 90.00% ± 2.40 in data set [3] (10 µM). Besides, in data set [4], the “Type of BBB Permeation” value was “CNS+ High BBB permeation (High BBB permeation Pe (10^−6 cm s^−1) > 4.0)”. Also, the “BBB permeability (in words)” value in data set [4] was “high BBB permeability”. Moreover, the IC50 in data set [5] was determined as 98.3 ± 3.98 µM.

Consider `O=C1CSc2ccc(C(=O)CSc3nnc(Nc4ccc(Cl)cc4)s3)cc2N1` [Compound 3j, 6-(2-((5-((4-chlorophenyl)amino)-1,3,4-thiadiazol-2-yl)sulfanyl)acetyl)-2H benzo[b][1,4]thiazin-3(4H)-one], for which, in data set [1], the inhibition at 100 µM turned out to be 92.3 ± 1.3%. The inhibition at 1000 µM in data set [1] came to 96.5 ± 1.2%. Besides, the “BChE % Inhibition” value is listed as 42.5 ± 0.9% in data set [2] (10^−3 M) and 27.9 ± 0.7% in data set [2] (10^−4 M). In addition, the “% DPPH free radical scavenging (inhibition)” value in data set [3] (0.01 µM) was 68.00% ± 1.50; in data set [3] (0.1 µM), 73.00% ± 1.40; in data set [3] (1 µM) it was 85.00% ± 2.00; in data set [3] (10 µM), 92.00% ± 1.80. Moreover, in data set [4], the “Type of BBB Permeation” value is given as “CNS+ High BBB permeation (High BBB permeation Pe (10^−6 cm s^−1) > 4.0)”. The “BBB permeability (in words)” value in data set [4] is on record as “high BBB permeability”. The IC50 in data set [5] turned out to be 160 ± 5.53 µM.

The values above are taken from publication PMC9000418 (Molecules, 2022).
